Measurements published in patent publication US7323490B2, “Pyrrole compounds and uses thereof” (Ambit Biosciences Corporation, priority 2003, dated 2008).
Like-named read-outs stand apart in the source and are kept apart here.

Assays:
PDE6D [1] = molecular target: T1, PDE6D (Homo sapiens, UniProt O43924); assay: Binding assay with E. coli-expressed human PDE6D; parameters: made in house; host or cells: T7 phage amplified in E. coli; conditions: 10 μM competitors; dot blot
Protocol: The full-length coding sequence for human PDE6D was cloned into the pRSET vector for E. coli expression. The PDE6D coding sequence was fused in-frame with a His tag for purification purposes. […] The experiments were performed in duplicate. The data were obtained by loading the eluates from the binding experiment on a dot blot apparatus and subsequent detection with a PDE6D-specific antibody.

focal cerebral ischemia = conditions: for Infarct Volume: 1 h post, 24 h post MCAo, mean ± SEM; for Infarct Volume / infarct volume compared with controls (significance) / reduction in infarct volume from control: 48 h
Protocol: Control animals were injected with the vehicle for the test compounds. Survival was maintained for 48 hrs. The cortical infarction sizes were used as endpoints for efficacy evaluation.
Animal Preparation and Middle Cerebral Artery Occlusion. Male, adult, Sprague-Dawley rats (Charles River), weighing 300-400 grams, were used for the study. All animals were acclimated at least for five days before entering the study. Animals were housed in a standard animal facility and fed with commercial rodent chow ad libitum. All animals were anesthetized via intramuscular injection (4 mL/kg) of “cocktail” containing ketamine (25 mg/mL), xylazine (1.3 mg/mL) and acepromazine (0.33 mg/mL). Both carotid arteries were separated with great caution to minimize the vagal nerve stimulation. The right proximal MCA trunk was exposed through a subtemporal craniectomy without transecting the facial nerve. […] Immediately following MCA occlusion, both of the common carotid arteries were occluded for 1 hour using surgical aneurysm micro-clips (ROBOZ INC). Animals were put into temperature regulated recovery chamber for 1 hour before the clips were removed from the common carotid arteries. Body temperature was maintained at 37±0.5° C. during the surgery using a heating blanket connected to a temperature controller.
Compound Administration and Storage. In a blinded random investigation, all animals were injected with the compound(s) or vehicle via S.C. as bolus injection at 2 hours pre, 1 hour post and 24 hours post-MCAo.
Infarct Measurement. Forty-eight hours following MCAo, animals were euthanized with inhalation of CO2. Brains were removed and chilled in ice saline for 10 min. The brains were put in a metal rodent brain slicer. Each rat brain was cut coronally into 7 sections, with each section being 2 mm thick. The brain sections were immersed in 2% TTC solution for 30 min at 37° C. The areas of cerebral infarcts were determined on seven slices, using a computer-interfaced imaging system, Image-Pro® Plus, Version 4.4 for Windows (Media Cybernetics, MD). Infarct areas were then summed among slices and multiplied by slice thickness to give the total infarct volume.
Statistics. All data are expressed as mean±SEM. Infarct volume was analyzed using Student t Test. A p value of ≦0.05 was considered a statistically significant difference. All statistical analyses were performed with the software package JMP version 4.0 (SAS Institute Inc., Cary, N.C.).

HMG-CoA reductase = molecular target: T2, HMG-CoA reductase (Homo sapiens, UniProt P04035); assay: enzymatic activity-based HMG-CoA reductase assay; format: biochemical; conditions: concentrations up to 4 μM
T2 sequence (P04035 1-888): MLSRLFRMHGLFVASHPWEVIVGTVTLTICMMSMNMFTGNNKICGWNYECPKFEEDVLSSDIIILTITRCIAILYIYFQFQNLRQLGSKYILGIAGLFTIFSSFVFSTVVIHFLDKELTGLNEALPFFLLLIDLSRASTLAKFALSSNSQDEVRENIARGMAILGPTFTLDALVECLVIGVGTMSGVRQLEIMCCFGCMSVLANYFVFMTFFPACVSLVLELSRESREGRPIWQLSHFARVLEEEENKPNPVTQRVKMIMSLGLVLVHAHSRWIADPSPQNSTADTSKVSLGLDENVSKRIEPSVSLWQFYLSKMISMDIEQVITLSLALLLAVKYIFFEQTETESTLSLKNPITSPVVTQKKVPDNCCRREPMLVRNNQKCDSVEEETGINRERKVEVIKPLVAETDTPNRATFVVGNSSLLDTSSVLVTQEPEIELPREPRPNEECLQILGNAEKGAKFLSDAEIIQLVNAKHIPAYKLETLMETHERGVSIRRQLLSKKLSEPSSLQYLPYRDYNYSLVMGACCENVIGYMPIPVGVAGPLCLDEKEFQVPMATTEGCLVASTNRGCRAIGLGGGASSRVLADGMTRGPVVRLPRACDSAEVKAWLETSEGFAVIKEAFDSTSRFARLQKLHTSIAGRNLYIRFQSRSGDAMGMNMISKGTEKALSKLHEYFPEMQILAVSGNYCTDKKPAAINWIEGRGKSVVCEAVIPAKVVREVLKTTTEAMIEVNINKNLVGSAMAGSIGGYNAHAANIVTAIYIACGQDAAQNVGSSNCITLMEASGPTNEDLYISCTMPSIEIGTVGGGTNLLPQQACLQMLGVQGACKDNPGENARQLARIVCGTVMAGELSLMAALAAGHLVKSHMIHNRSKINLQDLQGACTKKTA
Protocol: In addition, compounds 781430, 781066, 780780, 780754, 779974, 781456, 782236, 782756, 783250 and 780520 were tested in enzymatic activity-based HMG-CoA reductase assays. […] Blank cells indicate there was no detectable interaction while the “nd” designation indicates the Kd was not determined.

PDE6D [2] = molecular target: T1, PDE6D; assay: T7 phage display competition binding assay (immobilized atorvastatin), PDE6D; parameters: made in house; host or cells: T7 phage amplified in E. coli; conditions: soluble competitor vs atorvastatin-coated affinity matrix; T7 phage displaying human PDE6D
Source text: The T7 phage displaying human PDE6D and CLB2 were obtained following the procedure of WO 01/18234, published Mar. 15, 2001, and U.S. patent applications Ser. No. 10/115,442, “Phage Display Affinity Filter and Forward Screen,” filed Apr. 2, 2002 and Ser. No. 10/214,654, “Uncoupling DNA Insert Propagation and Protein Display,” filed Aug. 7, 2002. […] The phage eluate was then amplified by growth in E. coli and the affinity enrichment procedure was repeated.
The dissociation constants, Kd's, for the interaction between the pyrrole compounds and the novel targets were obtained following the procedure of the co-pending patent applications U.S. Ser. Nos. 10/115,442, “Phage Display Affinity Filter and Forward Screen,” filed Apr. 2, 2002 and 60/480,587, “Protein Family Profiling Tool and Methods,” filed Jun. 20, 2003.

SMILES: CC(C)c1c(C(=O)Nc2ccccc2)c(-c2ccccc2)c(-c2ccc(F)cc2)n1CC[C@@H](O)C[C@@H](O)CC(=O)O [atorvastatin, reference compound]
- binding of E. coli expressed human PDE6D to immobilized atorvastatin bait (PDE6D [1]): E. coli expressed human PDE6D binds to atorvastatin
- Infarct Volume (focal cerebral ischemia; 1 mg/kg SC at 2 h pre): 158.06 ± 32.83 mm^3
- infarct volume compared with controls (significance) (focal cerebral ischemia; 1 mg/kg SC): not significantly different from controls
- Infarct Volume (focal cerebral ischemia; 10 mg/kg SC at 2 h pre): 124.71 ± 17.31 mm^3
- infarct volume compared with controls (significance) (focal cerebral ischemia; 10 mg/kg SC): not significantly different from controls

SMILES: CC(C)c1c(C(=O)Nc2ccccc2)c(-c2ccccc2)c(-c2ccc(F)cc2)n1CC(O)C(O)C(O)C(O)CO (centres unmarked) [Compound 782236]
- inhibition of the activity of HMG-CoA reductase (HMG-CoA reductase): none of the tested compounds inhibited
- Infarct Volume (focal cerebral ischemia; 1 mg/kg SC at 2 h pre, listed as A): 71.32±36.98 mm^3
- reduction in infarct volume from control (focal cerebral ischemia; 1 mg/kg SC): 53%
- animals died within the 24-hour period after the second injection (focal cerebral ischemia; 10 mg/kg SC): Three
- mortality rate (focal cerebral ischemia; 10 mg/kg SC): 60%
- Kd (PDE6D [2]): 0.269 µM

SMILES: CC(C)c1[nH]c(-c2ccc(F)cc2)c(-c2ccccc2)c1C(=O)Nc1ccccc1 [Compound 781430]
- inhibition of the activity of HMG-CoA reductase (HMG-CoA reductase): none of the tested compounds inhibited
- Infarct Volume (focal cerebral ischemia; 1 mg/kg SC at 2 h pre): 152.83 ± 13.78 mm^3
- infarct volume compared with controls (significance) (focal cerebral ischemia; 1 mg/kg SC): not significantly different from controls
- Infarct Volume (focal cerebral ischemia; 10 mg/kg SC at 2 h pre, listed as B): 65.99±25.01 mm^3
- reduction in infarct volume from control (focal cerebral ischemia; 10 mg/kg SC): 57%
- Kd (PDE6D [2]): 0.075 µM
